{"source": "PubChem BioAssay AID1259407", "about": "(Chemical Carcinogenesis Research Information System (CCRIS), 2018)", "test_system": "CCRIS mutagenicity, Ames/micronucleus/aberration tests", "experiment": "CCRIS mutagenicity studies", "key": {"[1]": {"settings": "Test System: AMES SALMONELLA TYPHIMURIUM, Strain/Indicator: TA98, Metabolic Activation: NONE, Method: PREINCUBATION"}, "[2]": {"settings": "Test System: AMES SALMONELLA TYPHIMURIUM, Strain/Indicator: TA100, Metabolic Activation: NONE, Method: PREINCUBATION"}, "[3]": {"settings": "Test System: AMES SALMONELLA TYPHIMURIUM, Strain/Indicator: TA1535, Metabolic Activation: NONE, Method: STANDARD PLATE"}}, "note": "Active and inactive are the calls of the source. No rule for the calls is given here."}
{"compound": "O=Cc1ccccc1[N+](=O)[O-]", "values": [{"measurement": "mutagenic call", "setting": "Test System: AMES SALMONELLA TYPHIMURIUM, Strain/Indicator: TA98, Metabolic Activation: HAMSTER, LIVER, S-9, AROCLOR 1254, Method: STANDARD PLATE", "value": "inactive; negative"}, {"measurement": "mutagenic call", "setting": "[1]", "value": "inactive; negative"}, {"measurement": "mutagenic call", "setting": "Test System: AMES SALMONELLA TYPHIMURIUM, Strain/Indicator: TA98, Metabolic Activation: NONE, Method: STANDARD PLATE", "value": "inactive; negative"}, {"measurement": "mutagenic call", "setting": "Test System: AMES SALMONELLA TYPHIMURIUM, Strain/Indicator: TA98, Metabolic Activation: RAT, LIVER, S-9, AROCLOR 1254, Method: STANDARD PLATE", "value": "inactive; negative"}, {"measurement": "mutagenic call", "setting": "Test System: AMES SALMONELLA TYPHIMURIUM, Strain/Indicator: TA98, Metabolic Activation: RAT, LIVER, S-9, KANECHLOR 500, Method: PREINCUBATION", "value": "inactive; negative"}, {"measurement": "mutagenic call", "setting": "Test System: AMES SALMONELLA TYPHIMURIUM, Strain/Indicator: TA98, Method: PREINCUBATION", "value": "inactive; negative"}, {"measurement": "mutagenic call", "setting": "Test System: AMES SALMONELLA TYPHIMURIUM, Strain/Indicator: TA100, Metabolic Activation: HAMSTER, LIVER, S-9, AROCLOR 1254, Method: STANDARD PLATE", "value": "inactive; negative"}, {"measurement": "mutagenic call", "setting": "[2]", "value": "inactive; negative"}, {"measurement": "mutagenic call", "setting": "Test System: AMES SALMONELLA TYPHIMURIUM, Strain/Indicator: TA100, Metabolic Activation: NONE, Method: STANDARD PLATE", "value": "inactive; negative"}, {"measurement": "mutagenic call", "setting": "Test System: AMES SALMONELLA TYPHIMURIUM, Strain/Indicator: TA100, Metabolic Activation: RAT, LIVER, S-9, AROCLOR 1254, Method: STANDARD PLATE", "value": "inactive; negative"}, {"measurement": "mutagenic call", "setting": "Test System: AMES SALMONELLA TYPHIMURIUM, Strain/Indicator: TA100, Metabolic Activation: RAT, LIVER, S-9, KANECHLOR 500, Method: PREINCUBATION", "value": "inactive; negative"}, {"measurement": "mutagenic call", "setting": "Test System: AMES SALMONELLA TYPHIMURIUM, Strain/Indicator: TA100, Method: PREINCUBATION", "value": "inactive; negative"}, {"measurement": "mutagenic call", "setting": "Test System: AMES SALMONELLA TYPHIMURIUM, Strain/Indicator: TA1535, Metabolic Activation: HAMSTER, LIVER, S-9, AROCLOR 1254, Method: STANDARD PLATE", "value": "inactive; negative"}, {"measurement": "mutagenic call", "setting": "Test System: AMES SALMONELLA TYPHIMURIUM, Strain/Indicator: TA1535, Metabolic Activation: NONE, Method: PREINCUBATION", "value": "inactive; negative"}, {"measurement": "mutagenic call", "setting": "[3]", "value": "inactive; negative"}, {"measurement": "mutagenic call", "setting": "Test System: AMES SALMONELLA TYPHIMURIUM, Strain/Indicator: TA1535, Metabolic Activation: RAT, LIVER, S-9, AROCLOR 1254, Method: STANDARD PLATE", "value": "inactive; negative"}, {"measurement": "mutagenic call", "setting": "Test System: AMES SALMONELLA TYPHIMURIUM, Strain/Indicator: TA1535, Method: PREINCUBATION", "value": "inactive; negative"}, {"measurement": "mutagenic call", "setting": "Test System: AMES SALMONELLA TYPHIMURIUM, Strain/Indicator: TA1537, Metabolic Activation: HAMSTER, LIVER, S-9, AROCLOR 1254, Method: STANDARD PLATE", "value": "inactive; negative"}, {"measurement": "mutagenic call", "setting": "Test System: AMES SALMONELLA TYPHIMURIUM, Strain/Indicator: TA1537, Metabolic Activation: NONE, Method: PREINCUBATION", "value": "inactive; negative"}, {"measurement": "mutagenic call", "setting": "Test System: AMES SALMONELLA TYPHIMURIUM, Strain/Indicator: TA1537, Metabolic Activation: NONE, Method: STANDARD PLATE", "value": "inactive; negative"}, {"measurement": "mutagenic call", "setting": "Test System: AMES SALMONELLA TYPHIMURIUM, Strain/Indicator: TA1537, Metabolic Activation: RAT, LIVER, S-9, AROCLOR 1254, Method: STANDARD PLATE", "value": "inactive; negative"}, {"measurement": "mutagenic call", "setting": "Test System: AMES SALMONELLA TYPHIMURIUM, Strain/Indicator: TA1537, Method: PREINCUBATION", "value": "inactive; negative"}, {"measurement": "mutagenic call", "setting": "Test System: AMES SALMONELLA TYPHIMURIUM, Strain/Indicator: TA1538, Metabolic Activation: HAMSTER, LIVER, S-9, AROCLOR 1254, Method: STANDARD PLATE", "value": "inactive; negative"}, {"measurement": "mutagenic call", "setting": "Test System: AMES SALMONELLA TYPHIMURIUM, Strain/Indicator: TA1538, Metabolic Activation: NONE, Method: PREINCUBATION", "value": "inactive; negative"}, {"measurement": "mutagenic call", "setting": "Test System: AMES SALMONELLA TYPHIMURIUM, Strain/Indicator: TA1538, Metabolic Activation: NONE, Method: STANDARD PLATE", "value": "inactive; negative"}, {"measurement": "mutagenic call", "setting": "Test System: AMES SALMONELLA TYPHIMURIUM, Strain/Indicator: TA1538, Metabolic Activation: RAT, LIVER, S-9, AROCLOR 1254, Method: STANDARD PLATE", "value": "inactive; negative"}, {"measurement": "mutagenic call", "setting": "Test System: AMES SALMONELLA TYPHIMURIUM, Strain/Indicator: TA1538, Method: PREINCUBATION", "value": "inactive; negative"}, {"measurement": "mutagenic call", "setting": "Test System: Mouse lymphoma, Strain/Indicator: L5178Y (tk+/tk-), Metabolic Activation: None, Method: Suspension/plate", "value": "inactive; negative"}, {"measurement": "mutagenic call", "setting": "Test System: Mouse lymphoma, Strain/Indicator: L5178Y (tk+/tk-), Metabolic Activation: Rat, Liver, S-9, Aroclor 1254, Method: Suspension/plate", "value": "inactive; negative"}]}
{"compound": "O=[N+]([O-])c1cccc2c1oc1ccccc12", "values": [{"measurement": "mutagenic call", "setting": "Test System: AMES SALMONELLA TYPHIMURIUM, Strain/Indicator: TA98(1,8-DNP6), Metabolic Activation: NONE, Method: PREINCUBATION", "value": "active; positive"}, {"measurement": "mutagenic call", "setting": "Test System: AMES SALMONELLA TYPHIMURIUM, Strain/Indicator: TA98(1,8-DNP6), Metabolic Activation: NONE, Method: SUSPENSION", "value": "active; positive"}, {"measurement": "mutagenic call", "setting": "Test System: AMES SALMONELLA TYPHIMURIUM, Strain/Indicator: TA98(1,8-DNP6), Metabolic Activation: RAT, LIVER, S-9, PCB (5%), Method: PREINCUBATION", "value": "active; positive"}, {"measurement": "mutagenic call", "setting": "Test System: AMES SALMONELLA TYPHIMURIUM, Strain/Indicator: TA98(NR), Metabolic Activation: NONE, Method: PREINCUBATION", "value": "active; positive"}, {"measurement": "mutagenic call", "setting": "Test System: AMES SALMONELLA TYPHIMURIUM, Strain/Indicator: TA98(NR), Metabolic Activation: NONE, Method: SUSPENSION", "value": "active; positive"}, {"measurement": "mutagenic call", "setting": "Test System: AMES SALMONELLA TYPHIMURIUM, Strain/Indicator: TA98(NR), Metabolic Activation: RAT, LIVER, S-9 (10%), Method: PREINCUBATION", "value": "active; positive"}, {"measurement": "mutagenic call", "setting": "Test System: AMES SALMONELLA TYPHIMURIUM, Strain/Indicator: TA98(NR), Metabolic Activation: RAT, LIVER, S-9, 3-METHYLCHOLANTHRENE (10%), Method: PREINCUBATION", "value": "active; positive"}, {"measurement": "mutagenic call", "setting": "Test System: AMES SALMONELLA TYPHIMURIUM, Strain/Indicator: TA98(NR), Metabolic Activation: RAT, LIVER, S-9, BETA-NAPHTHOFLAVONE (10%), Method: PREINCUBATION", "value": "active; positive"}, {"measurement": "mutagenic call", "setting": "Test System: AMES SALMONELLA TYPHIMURIUM, Strain/Indicator: TA98(NR), Metabolic Activation: RAT, LIVER, S-9, PCB (5%), Method: PREINCUBATION", "value": "active; positive"}, {"measurement": "mutagenic call", "setting": "Test System: AMES SALMONELLA TYPHIMURIUM, Strain/Indicator: TA98(NR), Metabolic Activation: RAT, LIVER, S-9, PCB (10%), Method: PREINCUBATION", "value": "active; positive"}, {"measurement": "mutagenic call", "setting": "Test System: AMES SALMONELLA TYPHIMURIUM, Strain/Indicator: TA98(NR), Metabolic Activation: RAT, LIVER, S-9, PHENOBARBITAL (10%), Method: PREINCUBATION", "value": "active; positive"}, {"measurement": "mutagenic call", "setting": "[1]", "value": "active; positive"}, {"measurement": "mutagenic call", "setting": "Test System: AMES SALMONELLA TYPHIMURIUM, Strain/Indicator: TA98, Metabolic Activation: NONE, Method: SUSPENSION", "value": "active; positive"}, {"measurement": "mutagenic call", "setting": "Test System: AMES SALMONELLA TYPHIMURIUM, Strain/Indicator: TA98, Metabolic Activation: RAT, LIVER, S-9, PCB (5%), Method: PREINCUBATION", "value": "active; positive"}, {"measurement": "mutagenic call", "setting": "Test System: AMES SALMONELLA TYPHIMURIUM, Strain/Indicator: TA98, Metabolic Activation: RAT, LIVER, S-9, PCB, Method: SUSPENSION", "value": "active; positive"}, {"measurement": "mutagenic call", "setting": "[2]", "value": "inactive; negative"}, {"measurement": "mutagenic call", "setting": "Test System: AMES SALMONELLA TYPHIMURIUM, Strain/Indicator: TA100, Metabolic Activation: NONE, Method: SUSPENSION", "value": "active; positive"}, {"measurement": "mutagenic call", "setting": "Test System: AMES SALMONELLA TYPHIMURIUM, Strain/Indicator: TA100, Metabolic Activation: RAT, LIVER, S-9, PCB (5%), Method: PREINCUBATION", "value": "active; positive"}, {"measurement": "mutagenic call", "setting": "Test System: AMES SALMONELLA TYPHIMURIUM, Strain/Indicator: TA100, Metabolic Activation: RAT, LIVER, S-9, PCB, Method: SUSPENSION", "value": "active; positive"}]}
{"compound": "CCN=NNCC", "values": [{"measurement": "mutagenic call", "setting": "[3]", "value": "active; positive"}]}
